US10870641B2, “Pyridazinones as PARP7 inhibitors” (Ribon Therapeutics Inc., priority 2018, dated 2020)

The compounds below were run against TIPARP (PARP7) (Homo sapiens (Human), UniProt Q7Z3E1) (assay: Enzymatic assay for inhibition of PARP7: displacement of biotinylated Probe A (TR-FRET)). Details: TR-FRET displacement of Probe A from TIPARP.
Type: binding
Method: 20 nL of a dose response curve of each test compound was spotted in black 384-well polystyrene proxiplates (Perkin Elmer) using a Mosquito (TTP Labtech). […] Reactions were incubated at 25° C. for an additional 30 min, then read on an Envision plate reader equipped with a LANCE/DELFIA top mirror (Perkin Elmer) using excitation of 320 nm and emission of 615 nm and […] with a 90 μs delay. The ratio of the 665/615 nm emission were calculated for each well to determine the amount of complex of TIPARP and Probe A in each well. […] The Hill Coefficient is normally allowed to float but may also be fixed at 1 in a 3-parameter fit. Y is the % inhibition and X is the compound concentration.

Chain of TIPARP (PARP7) (Q7Z3E1 whole entry): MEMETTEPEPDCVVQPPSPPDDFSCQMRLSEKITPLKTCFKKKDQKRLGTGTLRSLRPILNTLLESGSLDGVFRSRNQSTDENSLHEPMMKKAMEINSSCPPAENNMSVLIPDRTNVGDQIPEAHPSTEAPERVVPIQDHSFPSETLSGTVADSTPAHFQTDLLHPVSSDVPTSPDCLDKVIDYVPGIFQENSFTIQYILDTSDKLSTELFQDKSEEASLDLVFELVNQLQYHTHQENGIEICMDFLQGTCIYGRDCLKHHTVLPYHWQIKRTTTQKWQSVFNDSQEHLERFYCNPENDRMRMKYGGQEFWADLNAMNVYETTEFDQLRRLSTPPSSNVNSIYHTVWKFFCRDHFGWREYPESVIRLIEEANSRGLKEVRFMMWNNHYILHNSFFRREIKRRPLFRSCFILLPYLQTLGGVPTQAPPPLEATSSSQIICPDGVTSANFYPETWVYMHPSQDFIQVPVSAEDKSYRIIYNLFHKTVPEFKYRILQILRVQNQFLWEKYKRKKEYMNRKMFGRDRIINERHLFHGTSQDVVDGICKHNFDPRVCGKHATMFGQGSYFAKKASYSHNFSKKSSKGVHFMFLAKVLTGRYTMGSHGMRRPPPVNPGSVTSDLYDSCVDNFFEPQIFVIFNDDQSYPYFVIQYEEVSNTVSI

Row | Compound | IC50 [nM]
1 | N#Cc1ccc(N2CCN(C(=O)c3ccc(OC[C@H]4c5ccccc5CN4c4cn[nH]c(=O)c4C(F)(F)F)cc3)CC2)nc1 [Example 35B, 6-[4-[(4-[[(1R)-2-[6-oxo-5-(trifluoromethyl)-1,6-dihydropyridazin-4-yl]-2,3-dihydro-1H-isoindol-1-yl]methoxy]phenyl)carbonyl]piperazin-1-yl]pyridine-3-carbonitrile] | 100 to 1000
2 | N#Cc1ccc(N2CCN(C(=O)c3ccnc(OC[C@H]4c5ccccc5CN4c4cn[nH]c(=O)c4C(F)(F)F)c3)CC2)nc1 [Example 36A, 6-[4-[(2-[[(1R)-2-[6-oxo-5-(trifluoromethyl)-1,6-dihydropyridazin-4-yl]-2,3-dihydro-1H-isoindol-1-yl]methoxy]pyridin-4-yl)carbonyl]piperazin-1-yl]pyridine-3-carbonitrile] | ≥ 1000
3 | N#Cc1ccc(N2CCN(C(=O)c3cncc(OC[C@H]4c5ccccc5CN4c4cn[nH]c(=O)c4C(F)(F)F)n3)CC2)nc1 [Example 72B, 6-[4-[(6-[[(1R)-2-[6-oxo-5-(trifluoromethyl)-1,6-dihydropyridazin-4-yl]-2,3-dihydro-1H-isoindol-1-yl]methoxy]pyrazin-2-yl)carbonyl]piperazin-1-yl]pyridine-3-carbonitrile] | < 100
4 | O=C(COC[C@@H]1CCCN1c1cn[nH]c(=O)c1C(F)(F)F)N[C@H]1CC[C@H](Nc2ccccn2)CC1 [Example 80A, 2-[[(2S)-1-[6-oxo-5-(trifluoromethyl)-1,6-dihydropyridazin-4-yl]pyrrolidin-2-yl]methoxy]-N-[(1r,4r)-4-[(pyridin-2-yl)amino]cyclohexyl]acetamide] | 100 to 1000
5 | N#Cc1ccc(N2CCN(C(=O)CCO[C@H]3Cc4ccccc4[C@@H]3Nc3cn[nH]c(=O)c3C(F)(F)F)CC2)nc1 [Example 537A] | ≥ 1000

More lines, now with the values ahead:

Row | IC50 [nM] | Compound
6 | < 100 | N#Cc1ccc(N2CCN(C(=O)c3ccnc(OC[C@@H]4c5ccccc5CN4c4cn[nH]c(=O)c4C(F)(F)F)n3)CC2)nc1 [Example 38A, 6-[4-[(2-[[(1S)-2-[6-Oxo-5-(trifluoromethyl)-1,6-dihydropyridazin-4-yl]-2,3-dihydro-1H-isoindol-1-yl]methoxy]pyrimidin-4-yl)carbonyl]piperazin-1-yl]pyridine-3-carbonitrile]
7 | < 100 | N#Cc1ccc(N2CCC3C2CCN3C(=O)CCOC[C@@H]2CCCN2c2cn[nH]c(=O)c2C(F)(F)F)nc1 (stereo partly drawn) [Example 110, 6-[4-(3-[[(2S)-1-[6-oxo-5-(trifluoromethyl)-1,6-dihydropyridazin-4-yl]pyrrolidin-2-yl]methoxy]propanoyl)-octahydropyrrolo[3,2-b]pyrrol-1-yl]pyridine-3-carbonitrile]
8 | < 100 | N#Cc1ccc(N2CCN(C(=O)CNCC[C@H]3c4ccccc4CN3c3cn[nH]c(=O)c3C(F)(F)F)CC2)nc1 [Example 144A, 6-[4-[2-([2-[(1S)-2-[6-oxo-5-(trifluoromethyl)-1,6-dihydropyridazin-4-yl]-2,3-dihydro-1H-isoindol-1-yl]ethyl]amino)acetyl]piperazin-1-yl]pyridine-3-carbonitrile]
9 | < 100 | O=C(CCOCCNc1cn[nH]c(=O)c1C(F)(F)F)N1CCN(c2ccc(Cl)cn2)CC1 [Example 506, 5-[(2-[3-[4-(5-Chloropyridin-2-yl)piperazin-1-yl]-3-oxopropoxy]ethyl)amino]-4-(trifluoromethyl)-2,3-dihydropyridazin-3-one]
10 | < 100 | CC(C)(COCCC(=O)N1CCN(c2ccc(C#N)cn2)CC1)Nc1cn[nH]c(=O)c1C(F)(F)F [Example 519, 6-[4-[3-(2-Methyl-2-[[6-oxo-5-(trifluoromethyl)-1,6-dihydropyridazin-4-yl]amino]propoxy)propanoyl]piperazin-1-yl]pyridine-3-carbonitrile]
11 | < 100 | O=C(CCOCCOc1cn[nH]c(=O)c1Cl)N1CCN(c2ccc(Cl)cn2)CC1 [Example 523, 4-Chloro-5-(2-[3-[4-(5-chloropyridin-2-yl)piperazin-1-yl]-3-oxopropoxy]ethoxy)-2,3-dihydropyridazin-3-one]
